These results are taken from ChEMBL document CHEMBL5316289, “Structure-Based Rational Design of Small α-Helical Peptides with Broad-Spectrum Activity against Multidrug-Resistant Pathogens” (J Med Chem, 2023).

Values joined by “and” are separate entries in the source; they are usually repeats but may differ in a detail not shown here. Identical values can stand only once.

Broadly, the MIC is the lowest concentration that inhibits growth of the organism.

Common to all, as to type: functional
Test [1] deals with Staphylococcus aureus. Briefly: Antibacterial activity against methicillin resistant Staphylococcus aureus ATCC BAA 1556 assessed as inhibition of bacterial growth incubated for 24 hrs by CLSI based broth microdilution method. On the technique in general: Dilution methods test growth across graded concentrations, often in twofold steps.
In the next test the test system is Klebsiella pneumoniae. Briefly: Antibacterial activity against Klebsiella pneumoniae ATCC BAA 1705 assessed as inhibition of bacterial growth incubated for 24 hrs by CLSI based broth microdilution method.
A further test deals with Pseudomonas aeruginosa. Put plainly: Antibacterial activity against Pseudomonas aeruginosa […] assessed as inhibition of bacterial growth incubated for 24 hrs by CLSI based broth microdilution method.
The test system of the next test is Escherichia coli. Briefly: Antibacterial activity against Escherichia coli ATCC 25922 assessed as inhibition of bacterial growth incubated for 24 hrs by CLSI based broth microdilution method.
Test [2] relates to Staphylococcus aureus. Briefly: Antibacterial activity against Staphylococcus aureus ATCC 29213 assessed as inhibition of bacterial growth incubated for 24 hrs by CLSI based broth microdilution method.

As to Ac-KWAKKWAKWWKK-NH2, the MIC in the test on Staphylococcus aureus [1], with Klebsiella pneumoniae (read-out: MIC), in the test with Pseudomonas aeruginosa and in the test on Escherichia coli was 100 µg/mL throughout.

Consider Ac-RWIRRWIRWWR-NH2, for which the MIC with Klebsiella pneumoniae (read-out: MIC) and in the test on Escherichia coli was 100 µg/mL throughout.

Consider H-AAWRRWWRRA-NH2, for which the MIC in the test with Staphylococcus aureus [1] was > 100 µg/mL and > 70.7 µM; with Klebsiella pneumoniae (read-out: MIC), above 100 µg/mL; with Pseudomonas aeruginosa it was above 100 µg/mL; in the test on Staphylococcus aureus [2], > 100 µg/mL and > 70.7 µM; in the test on Escherichia coli it was > 100 µg/mL and > 70.7 µM.

H-ARRWWRRW-NH2: the MIC was 100 µg/mL and > 78.7 µM in the test with Staphylococcus aureus [1]; above 100 µg/mL in the test with Klebsiella pneumoniae (read-out: MIC); above 100 µg/mL in the test on Pseudomonas aeruginosa; 100 µg/mL in the test with Staphylococcus aureus [2]; > 100 µg/mL and > 78.7 µM in the test on Escherichia coli.

In the case of H-AWWRRAWRR-NH2, the MIC with Staphylococcus aureus [1] is > 100 µg/mL and > 74.5 µM; in the test with Klebsiella pneumoniae (read-out: MIC), above 100 µg/mL; with Pseudomonas aeruginosa, above 100 µg/mL; with Staphylococcus aureus [2] it was > 100 µg/mL and > 74.5 µM; in the test with Escherichia coli, > 100 µg/mL and > 74.5 µM.

For H-KWAKKWAKWWKK-NH2, the MIC in the test on Staphylococcus aureus [1] was 100 µg/mL; in the test with Klebsiella pneumoniae (read-out: MIC) it was above 100 µg/mL; with Pseudomonas aeruginosa, above 100 µg/mL; with Staphylococcus aureus [2], 100 µg/mL; in the test on Escherichia coli, > 100 µg/mL and > 59.8 µM.

Regarding H-RAARRWARWWR-NH2, the MIC was 100 µg/mL with Staphylococcus aureus [1]; above 100 µg/mL in the test on Klebsiella pneumoniae (read-out: MIC); above 100 µg/mL in the test on Pseudomonas aeruginosa; 100 µg/mL with Staphylococcus aureus [2]; > 100 µg/mL and > 63.7 µM in the test on Escherichia coli.

With H-RAWRAWWRRA-NH2, the MIC in the test on Staphylococcus aureus [1] is > 100 µg/mL and > 70.7 µM; with Klebsiella pneumoniae (read-out: MIC), above 100 µg/mL; in the test on Pseudomonas aeruginosa, above 100 µg/mL; with Staphylococcus aureus [2] it was > 100 µg/mL and > 70.7 µM; in the test on Escherichia coli, > 100 µg/mL and > 70.7 µM.

Turning to H-RAWRRAWRAW-NH2, the MIC in the test on Staphylococcus aureus [1] was > 100 µg/mL and > 70.7 µM; in the test on Klebsiella pneumoniae (read-out: MIC) it was above 100 µg/mL; with Pseudomonas aeruginosa it was above 100 µg/mL; with Staphylococcus aureus [2], > 100 µg/mL and > 70.7 µM; in the test with Escherichia coli, > 100 µg/mL and > 70.7 µM.

With H-RAWRRWARAW-NH2, the MIC with Staphylococcus aureus [1] is > 100 µg/mL and > 70.7 µM; with Klebsiella pneumoniae (read-out: MIC), above 100 µg/mL; with Pseudomonas aeruginosa it was above 100 µg/mL; with Staphylococcus aureus [2] it was > 100 µg/mL and > 70.7 µM; in the test on Escherichia coli, > 100 µg/mL and > 70.7 µM.

As to H-RAWRRWWARA-NH2, the MIC in the test on Staphylococcus aureus [1] is > 100 µg/mL and > 70.7 µM; in the test with Klebsiella pneumoniae (read-out: MIC), above 100 µg/mL; with Pseudomonas aeruginosa it was above 100 µg/mL; with Staphylococcus aureus [2], > 100 µg/mL and > 70.7 µM; in the test with Escherichia coli, > 100 µg/mL and > 70.7 µM.

H-RAWRRWWRA-NH2: the MIC with Staphylococcus aureus [1] is > 100 µg/mL and > 74.5 µM; with Klebsiella pneumoniae (read-out: MIC), above 100 µg/mL; with Pseudomonas aeruginosa it was above 100 µg/mL; with Staphylococcus aureus [2], > 100 µg/mL and > 74.5 µM; in the test on Escherichia coli, > 100 µg/mL and > 74.5 µM.

Take H-RAWRRWWRAA-NH2: the MIC with Staphylococcus aureus [1] is > 100 µg/mL and > 70.7 µM; with Klebsiella pneumoniae (read-out: MIC), above 100 µg/mL; in the test with Pseudomonas aeruginosa, above 100 µg/mL; in the test with Staphylococcus aureus [2] it was > 100 µg/mL and > 70.7 µM; with Escherichia coli it was > 100 µg/mL and > 70.7 µM.

As to H-RRWRRWW-NH2, the MIC with Staphylococcus aureus [1] was 100 µg/mL; in the test on Klebsiella pneumoniae (read-out: MIC) it was above 100 µg/mL; in the test on Pseudomonas aeruginosa it was above 100 µg/mL; in the test on Staphylococcus aureus [2], 100 µg/mL; in the test with Escherichia coli it was > 100 µg/mL and > 83.3 µM.

Turning to H-RRWWRRW-NH2, the MIC is 100 µg/mL in the test with Staphylococcus aureus [1]; above 100 µg/mL with Klebsiella pneumoniae (read-out: MIC); above 100 µg/mL in the test on Pseudomonas aeruginosa; > 100 µg/mL and > 83.3 µM in the test with Escherichia coli.

For the substance H-RWARRAWRAW-NH2, the MIC with Staphylococcus aureus [1] is > 100 µg/mL and > 70.7 µM; in the test on Klebsiella pneumoniae (read-out: MIC) it was above 100 µg/mL; with Pseudomonas aeruginosa, above 100 µg/mL; in the test with Staphylococcus aureus [2] it was > 100 µg/mL and > 70.7 µM; in the test on Escherichia coli, > 100 µg/mL and > 70.7 µM.

Regarding H-RWARRWARWWR-NH2, the MIC was 100 µg/mL with Staphylococcus aureus [1], above 100 µg/mL in the test with Klebsiella pneumoniae (read-out: MIC), 100 µg/mL with Pseudomonas aeruginosa and 100 µg/mL with Escherichia coli.

As to H-RWARRWARWWRR-NH2, the MIC in the test on Klebsiella pneumoniae (read-out: MIC) was above 100 µg/mL; with Pseudomonas aeruginosa, 100 µg/mL; in the test on Escherichia coli, > 100 µg/mL and > 54.3 µM.

Turning to H-RWARRWWR-NH2, the MIC in the test with Staphylococcus aureus [1] was > 100 µg/mL and > 78.7 µM; with Klebsiella pneumoniae (read-out: MIC) it was above 100 µg/mL; in the test with Pseudomonas aeruginosa, above 100 µg/mL; in the test with Staphylococcus aureus [2], > 100 µg/mL and > 78.7 µM; in the test on Escherichia coli, > 100 µg/mL and > 78.7 µM.

With H-RWARRWWRA-NH2, the MIC in the test on Staphylococcus aureus [1] is > 100 µg/mL and > 74.5 µM; with Klebsiella pneumoniae (read-out: MIC), above 100 µg/mL; with Pseudomonas aeruginosa, above 100 µg/mL; in the test with Staphylococcus aureus [2], > 100 µg/mL and > 74.5 µM; with Escherichia coli, > 100 µg/mL and > 74.5 µM.

As to H-RWIRRWIRWWR-NH2, the MIC worked out at 56.5 µM in the test with Klebsiella pneumoniae, 100 µg/mL in the test with Klebsiella pneumoniae (read-out: MIC) and 100 µg/mL in the test with Escherichia coli.

Regarding H-RWRRWWR-NH2, the MIC with Staphylococcus aureus [1] was 100 µg/mL; in the test with Klebsiella pneumoniae (read-out: MIC) it was above 100 µg/mL; in the test on Pseudomonas aeruginosa it was above 100 µg/mL; with Staphylococcus aureus [2], 100 µg/mL; in the test on Escherichia coli, > 100 µg/mL and > 83.3 µM.

As to H-RWWRAAWRR-NH2, the MIC was > 100 µg/mL and > 74.5 µM with Staphylococcus aureus [1]; above 100 µg/mL in the test on Klebsiella pneumoniae (read-out: MIC); above 100 µg/mL with Pseudomonas aeruginosa; > 100 µg/mL and > 74.5 µM in the test with Staphylococcus aureus [2]; > 100 µg/mL and > 74.5 µM in the test with Escherichia coli.

As for H-RWWRRAWAR-NH2, the MIC is > 100 µg/mL and > 74.5 µM with Staphylococcus aureus [1]; above 100 µg/mL with Klebsiella pneumoniae (read-out: MIC); above 100 µg/mL in the test on Pseudomonas aeruginosa; > 100 µg/mL and > 74.5 µM in the test with Staphylococcus aureus [2]; > 100 µg/mL and > 74.5 µM in the test with Escherichia coli.

Turning to H-RWWRRAWR-NH2, the MIC is > 100 µg/mL and > 78.7 µM with Staphylococcus aureus [1]; above 100 µg/mL with Klebsiella pneumoniae (read-out: MIC); above 100 µg/mL with Pseudomonas aeruginosa; > 100 µg/mL and > 78.7 µM in the test on Staphylococcus aureus [2]; > 100 µg/mL and > 78.7 µM in the test on Escherichia coli.

As to H-RWWRRAWRA-NH2, the MIC in the test with Staphylococcus aureus [1] is > 100 µg/mL and > 74.5 µM; with Klebsiella pneumoniae (read-out: MIC), above 100 µg/mL; with Pseudomonas aeruginosa, above 100 µg/mL; with Staphylococcus aureus [2], > 100 µg/mL and > 74.5 µM; in the test with Escherichia coli, > 100 µg/mL and > 74.5 µM.

On to H-RWWRRAWRAA-NH2, for which the MIC in the test with Staphylococcus aureus [1] was > 100 µg/mL and > 70.7 µM; in the test on Klebsiella pneumoniae (read-out: MIC), above 100 µg/mL; in the test on Pseudomonas aeruginosa it was above 100 µg/mL; in the test on Staphylococcus aureus [2], > 100 µg/mL and > 70.7 µM; with Escherichia coli, > 100 µg/mL and > 70.7 µM.

Regarding H-RWWRRWAR-NH2, the MIC in the test with Staphylococcus aureus [1] was > 100 µg/mL and > 78.7 µM; in the test on Klebsiella pneumoniae (read-out: MIC), above 100 µg/mL; in the test on Pseudomonas aeruginosa, above 100 µg/mL; in the test with Staphylococcus aureus [2], > 100 µg/mL and > 78.7 µM; in the test on Escherichia coli, > 100 µg/mL and > 78.7 µM.

Regarding H-RWWRRWR-NH2, the MIC is 100 µg/mL with Staphylococcus aureus [1]; above 100 µg/mL with Klebsiella pneumoniae (read-out: MIC); above 100 µg/mL with Pseudomonas aeruginosa; 100 µg/mL in the test on Staphylococcus aureus [2]; > 100 µg/mL and > 83.3 µM with Escherichia coli.

On to H-WRRWARRW-NH2, for which the MIC was > 100 µg/mL and > 78.7 µM in the test with Staphylococcus aureus [1]; above 100 µg/mL in the test on Klebsiella pneumoniae (read-out: MIC); above 100 µg/mL in the test with Pseudomonas aeruginosa; > 100 µg/mL and > 78.7 µM with Staphylococcus aureus [2]; > 100 µg/mL and > 78.7 µM in the test on Escherichia coli.
